Here are results for 15 molecules from US20240018123A1, “COMPOUND FOR INHIBITING OR DISINTEGRATING ANDROGEN RECEPTOR, AND PHARMACEUTICAL USE THEREOF” (KOREA RESEARCH INSTITUTE OF CHEMICAL TECHNOLOGY, priority 2020, published 2024).

By CC50 is commonly meant the concentration at which the toxic effect on the cells reaches its halfway point.

The first data set relates to VCaP cells. The data set is described as follows: Cytotoxicity assessment (Cell-titer-glo cell viability), VCaP. Conditions: read-out: VCaP (CC50); VCaP cells, 6 days of treatment, Cell-titer-glo, vs DMSO.
Take `CC1(C)C(NC(=O)c2ccc(C#CC3CCN(c4ccc5nnn(C6CCC(=O)NC6=O)c(=O)c5c4)CC3)cc2)C(C)(C)C1Oc1ccc(C#N)c(Cl)c1` (stereo not drawn) [Example 142, N-((1r,3r)-3-(3-chloro-4-cyanophenoxy)-2,2,4,4-tetramethylcyclobutyl)-4-((1-(3-(2,6-dioxopiperidin-3-yl)-4-oxo-3,4-dihydrobenzo[d][1,2,3]triazin-6-yl)piperidin-4-yl)ethynyl)benzamide]: the half-maximal cytotoxic concentration (CC50) turned out to be 7.1 nM. The same measure, in the same setting: as for `CC1(C)[C@H](NC(=O)c2ccc(CCN3CC4CN(c5ccc6nnn(C7CCC(=O)NC7=O)c(=O)c6c5)CC4C3)cc2)C(C)(C)[C@H]1Oc1ccc(C#N)c(Cl)c1` (stereo partly drawn) [Example 92, N-((1r,3r)-3-(3-chloro-4-cyanophenoxy)-2,2,4,4-tetramethylcyclobutyl)-4-(2-(5-(3-(2,6-dioxopiperidin-3-yl)-4-oxo-3,4-dihydrobenzo[d][1,2,3]triazin-6-yl)hexahydropyrrolo[3,4-c]pyrrol-2(1H)-yl)ethyl)benzamide], the figure is over 10000 nM; as for `CC1(C)C(NC(=O)c2ccc(-n3cc(CCNC(=O)C4CCN(c5ccc6nnn(C7CCC(=O)NC7=O)c(=O)c6c5)CC4)nn3)cc2)C(C)(C)C1Oc1ccc(C#N)c(Cl)c1` (stereo not drawn) [Example 154, N-(2-(1-(4-(((1r,3r)-3-(3-chloro-4-cyanophenoxy)-2,2,4,4-tetramethylcyclobutyl)carbamoyl)phenyl)-1H-1,2,3-triazol-4-yl)ethyl)-1-(3-(2,6-dioxopiperidin-3-yl)-4-oxo-3,4-dihydrobenzo[d][1,2,3]triazin-6-yl)piperidine-4-carboxamide], 41.6 nM; as for `CC1(C)C(NC(=O)c2ccc(-n3cc(CNC(=O)CNc4ccc5nnn(C6CCC(=O)NC6=O)c(=O)c5c4)nn3)cc2)C(C)(C)C1Oc1ccc(C#N)c(Cl)c1` (stereo not drawn) [Example 152, N-((1r,3r)-3-(3-chloro-4-cyanophenoxy)-2,2,4,4-tetramethylcyclobutyl)-4-(4-((2-((3-(2,6-dioxopiperidin-3-yl)-4-oxo-3,4-dihydrobenzo[d][1,2,3]triazin-6-yl)amino)acetamido)methyl)-1H-1,2,3-triazol-1-yl)benzamide], 233 nM. On to `CC1(C)[C@H](NC(=O)c2ccc(N3CCN(Cc4cn(-c5ccc6nnn(C7CCC(=O)NC7=O)c(=O)c6c5)nn4)CC3)cc2)C(C)(C)[C@H]1Oc1ccc(C#N)c(Cl)c1` (stereo partly drawn) [Example 91, N-((1r,3r)-3-(3-chloro-4-cyanophenoxy)-2,2,4,4-tetramethylcyclobutyl)-4-(4-((1-(3-(2,6-dioxopiperidin-3-yl)-4-oxo-3,4-dihydrobenzo[d][1,2,3]triazin-6-yl)-1H-1,2,3-triazol-4-yl)methyl)piperazin-1-yl)benzamide], for which the CC50 was determined as 262 nM.

In the case of `CC1(C)C(NC(=O)c2ccc(-n3cc(CNC(=O)C4CN(c5ccc6nnn(C7CCC(=O)NC7=O)c(=O)c6c5)C4)nn3)cc2)C(C)(C)C1Oc1ccc(C#N)c(Cl)c1` (stereo not drawn) [Example 151, N-((1-(4-(((1r,3r)-3-(3-chloro-4-cyanophenoxy)-2,2,4,4-tetramethylcyclobutyl)carbamoyl)phenyl)-1H-1,2,3-triazol-4-yl)methyl)-1-(3-(2,6-dioxopiperidin-3-yl)-4-oxo-3,4-dihydrobenzo[d][1,2,3]triazin-6-yl)azetidine-3-carboxamide], the CC50 was 25.6 nM. The same measure, in the same setting: as for `CC1(C)C(NC(=O)c2ccc(C#CC3CCN(C(=O)C4CN(c5ccc6nnn(C7CCC(=O)NC7=O)c(=O)c6c5)C4)CC3)cc2)C(C)(C)C1Oc1ccc(C#N)c(Cl)c1` (stereo not drawn) [Example 95, N-((1r,3r)-3-(3-chloro-4-cyanophenoxy)-2,2,4,4-tetramethylcyclobutyl)-4-((1-(1-(3-(2,6-dioxopiperidin-3-yl)-4-oxo-3,4-dihydrobenzo[d][1,2,3]triazin-6-yl)azetidine-3-carbonyl)piperidin-4-yl)ethynyl)benzamide], the figure is 4.5 nM; as for `CC1(C)C(NC(=O)c2ccc(C#CCC3CCN(CC4CCN(C(=O)C5CN(c6ccc7nnn(C8CCC(=O)NC8=O)c(=O)c7c6)C5)CC4)CC3)nc2)C(C)(C)C1Oc1ccc(C#N)c(Cl)c1` (stereo not drawn) [Example 127, N-((1r,3r)-3-(3-chloro-4-cyanophenoxy)-2,2,4,4-tetramethylcyclobutyl)-6-(3-(1-((1-(1-(3-(2,6-dioxopiperidin-3-yl)-4-oxo-3,4-dihydrobenzo[d][1,2,3]triazin-6-yl)azetidine-3-carbonyl)piperidin-4-yl)methyl)piperidin-4-yl)prop-1-yn-1-yl)nicotinamide], 27 nM; as for `CC1(C)C(NC(=O)c2ccc(N3CC4CN(CC5CCN(C(=O)C6CCN(c7ccc8nnn(C9CCC(=O)NC9=O)c(=O)c8c7)CC6)CC5)CC4C3)cc2)C(C)(C)C1Oc1ccc(C#N)c(Cl)c1` (stereo not drawn) [Example 139, N-((1r,3r)-3-(3-chloro-4-cyanophenoxy)-2,2,4,4-tetramethylcyclobutyl)-4-(5-((1-(1-(3-(2,6-dioxopiperidin-3-yl)-4-oxo-3,4-dihydrobenzo[d][1,2,3]triazin-6-yl)piperidine-4-carbonyl)piperidin-4-yl)methyl)hexahydropyrrolo[3,4-c]pyrrol-2(1H)-yl)benzamide], 69.5 nM.

A further data set deals with T1, Androgen receptor (AR) (Homo sapiens, UniProt P10275, T878A).
T1 construct: 5.5×10^5 LNCap cells were injected into each well of a 6-well plate; endogenous in cells; host or cells: LNCaP
T1 sequence (P10275 1-920 T878A): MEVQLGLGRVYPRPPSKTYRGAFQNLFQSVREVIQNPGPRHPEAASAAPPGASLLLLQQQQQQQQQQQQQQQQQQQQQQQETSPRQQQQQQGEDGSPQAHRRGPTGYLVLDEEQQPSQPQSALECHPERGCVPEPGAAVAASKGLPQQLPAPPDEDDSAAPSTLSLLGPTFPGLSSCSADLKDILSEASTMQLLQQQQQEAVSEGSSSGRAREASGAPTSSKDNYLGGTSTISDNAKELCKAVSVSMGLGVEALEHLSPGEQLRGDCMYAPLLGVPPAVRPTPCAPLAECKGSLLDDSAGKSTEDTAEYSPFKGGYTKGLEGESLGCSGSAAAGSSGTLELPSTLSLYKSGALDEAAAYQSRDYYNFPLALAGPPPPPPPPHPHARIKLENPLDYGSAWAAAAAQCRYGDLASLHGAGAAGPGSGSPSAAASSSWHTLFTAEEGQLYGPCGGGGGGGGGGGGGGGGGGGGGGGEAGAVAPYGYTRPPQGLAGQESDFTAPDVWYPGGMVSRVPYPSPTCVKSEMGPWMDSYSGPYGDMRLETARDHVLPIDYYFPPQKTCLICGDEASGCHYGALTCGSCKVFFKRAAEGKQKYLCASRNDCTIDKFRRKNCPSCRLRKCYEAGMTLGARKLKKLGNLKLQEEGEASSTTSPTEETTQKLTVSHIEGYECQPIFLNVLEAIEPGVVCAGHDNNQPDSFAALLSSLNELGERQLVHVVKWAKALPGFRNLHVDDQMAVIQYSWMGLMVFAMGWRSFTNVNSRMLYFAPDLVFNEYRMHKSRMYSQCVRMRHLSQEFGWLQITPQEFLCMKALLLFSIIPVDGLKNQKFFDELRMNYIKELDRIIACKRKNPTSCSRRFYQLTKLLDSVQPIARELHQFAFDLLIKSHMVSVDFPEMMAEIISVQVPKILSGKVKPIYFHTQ
The data set is described as follows: Assessment of AR proteolytic activity (Western blotting of LNCap cell lysates). The data set is classed as cell-based. Conditions: 24 hours of treatment, Western blotting quantified with Image J. In short, it runs like this: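 LNCap cells seeded at 5.5×10^5 per well and treated with compound for 24 hours. Lysates prepared in RIPA buffer (pH 7.5, with protease inhibitors). AR protein levels assessed by Western blot with densitometric quantification.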
(In general: Immunoblotting shows a protein as a band on a membrane.)
Regarding `CC1(C)C(NC(=O)c2ccc(N3CCC(CN4CCN(c5ccc6nnn(C7CCC(=O)NC7=O)c(=O)c6c5)CC4)CC3)cc2)C(C)(C)C1Oc1ccc(C#N)c(Cl)c1` (stereo not drawn) [Example 166, N-((1r,3r)-3-(3-chloro-4-cyanophenoxy)-2,2,4,4-tetramethylcyclobutyl)-4-(4-((4-(3-(2,6-dioxopiperidin-3-yl)-4-oxo-3,4-dihydrobenzo[d][1,2,3]triazin-6-yl)piperazin-1-yl)methyl)piperidin-1-yl)benzamide], the “Degradation (1 μM treated in LNCaP, % AR remaining)” value was found to be 13%. Still for that read-out and setting: the value for `CC1(C)C(NC(=O)c2ccc(C#CCN3CC4(CCN(c5ccc6nnn(C7CCC(=O)NC7=O)c(=O)c6c5)CC4)C3)nc2)C(C)(C)C1Oc1ccc(C#N)c(Cl)c1` (stereo not drawn) [Example 180, N-((1r,3r)-3-(3-chloro-4-cyanophenoxy)-2,2,4,4-tetramethylcyclobutyl)-6-(3-(7-(3-(2,6-dioxopiperidin-3-yl)-4-oxo-3,4-dihydrobenzo[d][1,2,3]triazin-6-yl)-2,7-diazaspiro[3.5]nonan-2-yl)prop-1-yn-1-yl)nicotinamide] was 18%; that for `CC1(C)[C@H](NC(=O)c2ccc(N3CC[C@H](CN4CC5(CCN(c6ccc7c(=O)n(C8CCC(=O)NC8=O)nnc7c6)CC5)C4)C3)nc2)C(C)(C)[C@H]1Oc1ccc(C#N)c(Cl)c1` (stereo partly drawn) [Example 185, N-((1r,3R)-3-(3-chloro-4-cyanophenoxy)-2,2,4,4-tetramethylcyclobutyl)-6-((3R)-3-((7-(3-(2,6-dioxopiperidin-3-yl)-4-oxo-3,4-dihydrobenzo[d][1,2,3]triazin-7-yl)-2,7-diazaspiro[3.5]nonan-2-yl)methyl)pyrrolidin-1-yl)nicotinamide] was 10%. The same measure, in the same setting: as for `CC1(C)[C@H](NC(=O)c2ccc(C#CC3CCN(CC4CCN(c5ccc6c(=O)n(C7CCC(=O)NC7=O)nnc6c5)CC4)CC3)nc2)C(C)(C)[C@H]1Oc1ccc(C#N)c(Cl)c1` (stereo partly drawn) [Example 195, N-((1r,3r)-3-(3-chloro-4-cyanophenoxy)-2,2,4,4-tetramethylcyclobutyl)-6-((1-((1-(3-(2,6-dioxopiperidin-3-yl)-4-oxo-3,4-dihydrobenzo[d][1,2,3]triazin-7-yl)piperidin-4-yl)methyl)piperidin-4-yl)ethynyl)nicotinamide], the figure is 3%. As for `CC1(C)C(NC(=O)c2ccc(N3CCC(CN4CCN(C5CCN(c6ccc7nnn(C8CCC(=O)NC8=O)c(=O)c7c6)CC5)CC4)CC3)nc2)C(C)(C)C1Oc1ccc(C#N)c(Cl)c1` (stereo not drawn) [Example 194, N-((1r,3r)-3-(3-chloro-4-cyanophenoxy)-2,2,4,4-tetramethylcyclobutyl)-6-(4-((4-(1-(3-(2,6-dioxopiperidin-3-yl)-4-oxo-3,4-dihydrobenzo[d][1,2,3]triazin-6-yl)piperidin-4-yl)piperazin-1-yl)methyl)piperidin-1-yl)nicotinamide], the “Degradation (1 μM treated in LNCaP, % AR remaining)” value was determined as 9%. On the same count and under the same terms, as for `N#Cc1ccc(O[C@H]2CC[C@@H](NC(=O)c3ccc(N4CCN(CCCOc5ccc6nnn(C7CCC(=O)NC7=O)c(=O)c6c5)CC4)nc3)CC2)cc1Cl` (stereo partly drawn) [Example 161, N-((1r,4r)-4-(3-chloro-4-cyanophenoxy)cyclohexyl)-6-(4-(3-((3-(2,6-dioxopiperidin-3-yl)-4-oxo-3,4-dihydrobenzo[d][1,2,3]triazin-6-yl)oxy)propyl)piperazin-1-yl)nicotinamide], the figure is 36%.
